Assay results taken from patent publication US6979686B1, “Substituted pyrazoles as p38 kinase inhibitors” (Pharmacia Corporation, priority 2001, dated 2005).
Like-named read-outs stand apart in the source and are kept apart here.

Experiments:
[1] = target: T1, human p38 kinase alpha (Homo sapiens, UniProt Q16539); assay: p38 kinase in vitro assay, phosphorylation of biotinylated PHAS-I with 32P-ATP; format: biochemical; conditions: for P38 alpha kinase IC50, uM or % inhib @ conc. (uM): % inhib: @ 10.0 uM
T1 construct: GST (N, cleaved yes); made in house; host or cells: E. coli DH10B
T1 sequence (Q16539 whole entry): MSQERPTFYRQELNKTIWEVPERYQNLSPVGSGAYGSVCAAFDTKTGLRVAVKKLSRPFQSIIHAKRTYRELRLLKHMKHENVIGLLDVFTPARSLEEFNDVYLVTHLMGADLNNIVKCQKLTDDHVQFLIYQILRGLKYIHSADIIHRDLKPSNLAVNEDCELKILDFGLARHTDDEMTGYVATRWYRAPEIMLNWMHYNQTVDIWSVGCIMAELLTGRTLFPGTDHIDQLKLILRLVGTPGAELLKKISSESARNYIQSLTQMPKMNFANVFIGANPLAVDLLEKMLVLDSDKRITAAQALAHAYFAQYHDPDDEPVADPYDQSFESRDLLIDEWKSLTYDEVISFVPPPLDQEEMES

[2] = test system: TNF-α, U937 human histiocytic lymphoma cell line; assay: LPS stimulation of TNF production by U937 cells; format: cell-based; conditions: for inhibition at 1 µM: U-937, @ 1.0 uM, read-out: U937 Cell % inhib @ conc.; for U937 Cell % inhib @ conc. (uM) / U937 Cell % inhib @ conc.: @ 1.0 uM; for U937 Cell IC50, uM or % inhib @ conc. (uM): % inhib: @ 10.0 uM
Method: Maintenance and Differentiation of the U937 Human Histiocytic Lymphoma Cell Line:
Fifty million cells in 100 ml media were induced to terminal monocytic differentiation by 24 hour incubation with 20 ng/ml phorbol 12-myristate 13-acetate (Sigma). The cells were washed by centrifugation (200×g for 5 min) and resuspended in 100 ml fresh medium. After 24-48 hours, the cells were harvested, centrifuged, and resuspended in culture medium at 2 million cells/ml.
LPS Stimulation of TNF Production by U937 Cells:
Compounds were prepared as 10 mM stock solutions in DMSO and diluted in culture medium to yield a final DMSO concentration of 0.1% in the cell assay. LPS (E coli, 100 ng/ml final concentration) was then added at a volume of 0.02 ml. After 4 hour incubation at 37° C., the amount of TNF-α released in the culture medium was quantitated by ELISA. Inhibitory potency is expressed as IC50 (μM).
In vitro whole cell assay for measuring the ability of the compounds to inhibit TNF production in human U937 cells stimulated with LPS are shown in the column identified as: • “U937 Cell IC50, uM or % inhib @ conc., (uM)”

[3] = in vitro P38-alpha kinase, read-out: P38 alpha kinase IC50
[4] = Homo sapiens, TNF production, LPS-stimulated U937 cells
[5] = in vitro P38-alpha kinase inhibition, read-out: P38 alpha kinase IC50
[6] = Homo sapiens, TNF production, U937 cells stimulated with LPS
[7] = Homo sapiens, U-937, TNF production, human U937 cells stimulated with LPS, read-out: U937 Cell IC50
[8] = TNF production in human U937 cells stimulated with LPS
[9] = TNF production, U937 cells stimulated with LPS
[10] = TNF production, human U937 cells stimulated with LPS, read-out: U937 Cell IC50
[11] = Table 5, LPS-stimulated U937 cells, TNF-α, read-out: U937 Cell Assay IC50

CN(C)c1ccc(CNC(=O)NCCCc2[nH]nc(-c3ccc(F)cc3)c2-c2ccncc2)cc1 [Example B-1301]
IC50 [1, 3]: 120 nM | inhibition at 1 µM [2, 4]: 15%

CCS(=O)(=O)NC(CCC(=O)NC)c1[nH]nc(-c2ccc(F)cc2)c1-c1ccncc1 (stereo not shown) [Example B-0877]
IC50 [1, 5]: 1170 nM | inhibition at 1 µM [2, 6]: 13%

CNC(=O)CCC(NC(=O)C1CC1)c1[nH]nc(-c2ccc(F)cc2)c1-c1ccncc1 (stereo not shown) [Example B-0866]
IC50 [1, 5]: 1380 nM | inhibition at 1 µM [2, 6]: 28%

O=C(NCCc1[nH]nc(-c2ccc(F)cc2)c1-c1ccncc1)c1cccc(C(F)(F)F)c1F [Example B-1138]
IC50 [1, 5]: 1820 nM | IC50 [2, 7]: > 1000 nM

O=C(c1ccccc1Cl)N1CCC(c2[nH]nc(-c3ccc(F)cc3)c2-c2ccncc2)CC1 [Example B-1397]
IC50 [1, 3]: 920 nM | inhibition at 1 µM [2, 4]: 85%

CS(=O)(=O)c1ccc(CNC(=O)NCCCc2[nH]nc(-c3ccc(F)cc3)c2-c2ccncc2)cc1 [Example B-1312]
IC50 [1, 3]: 350 nM | IC50 [2, 7]: > 1000 nM

CCCCOc1ccc(S(=O)(=O)NCCc2[nH]nc(-c3ccc(F)cc3)c2-c2ccncc2)cc1 [Example B-1084]
IC50 [1, 5]: 430 nM | inhibition at 1 µM [2, 6]: 29%

O=C(NCc1[nH]nc(-c2ccc(F)cc2)c1-c1ccncc1)c1ccccc1I [Example B-0005]
inhibition at 1 µM ([1]; @ 1.0 uM, read-out: P38 alpha kinase % inhib @ conc.): 95% | IC50 [2, 7]: 2970 nM

CC(NC(=O)c1ccc(Cl)cc1Cl)c1[nH]nc(-c2ccc(F)cc2)c1-c1ccncc1 (stereo not shown) [Example B-0693]
U937 Cell % inhib @ conc. (uM) [2, 8]: 28.0% @

O=S(=O)(c1ccc(F)c(F)c1)N1CCC(c2[nH]nc(-c3ccc(F)cc3)c2-c2ccncc2)CC1 [Example B-1456]
IC50 [1, 3]: 1290 nM | IC50 [2, 7]: > 1000 nM

C[C@@H](NC(=O)[C@H]1CCCN1)c1[nH]nc(-c2ccc(F)cc2)c1-c1ccncc1 [Example B-0428]
IC50 [1, 5]: 990 nM | U937 Cell % inhib @ conc. (uM) [2, 8]: 27.0% @

O=C(NCCCc1[nH]nc(-c2ccc(F)cc2)c1-c1ccncc1)NCCc1c[nH]cn1 [Example B-1306]
IC50 [2, 7]: > 1000 nM

O=C(Nc1ccccc1F)N1CCC(c2[nH]nc(-c3ccc(F)cc3)c2-c2ccncc2)CC1 [Example B-1379]
IC50 [1, 3]: < 100 nM | IC50 [2, 7]: 92 nM

Cc1c(-c2ccncc2)c(-c2ccc(F)cc2)nn1CC(=O)N(C)CC(=O)N(C)C [Example B-2412]
P38 alpha kinase IC50, uM or % inhib @ conc. (uM): % inhib [1]: 40.0% @ | U937 Cell IC50, uM or % inhib @ conc. (uM): % inhib [2, 9]: 31.0% @

CNC(=O)CCC(NC(=O)c1ccccc1F)c1[nH]nc(-c2ccc(F)cc2)c1-c1ccncc1 (stereo not shown) [Example B-0874]
IC50 [1, 5]: 1920 nM | IC50 [2, 7]: > 1000 nM

O=S(=O)(C=Cc1ccccc1)NCCc1[nH]nc(-c2ccc(F)cc2)c1-c1ccncc1 [Example B-1016]
P38 alpha kinase % inhib @ conc. (uM) ([1]; @ 1.0 uM): 58.0% @ | U937 Cell % inhib @ conc. (uM) [2, 9]: 10.0% @

Cc1c(-c2ccncc2)c(-c2ccc(F)cc2)nn1CC(=O)N(CC1CC1)C(C)Cc1ccc(Cl)cc1 (stereo not shown) [Example B-2397]
P38 alpha kinase IC50, uM or % inhib @ conc. (uM): % inhib [1]: 83.0% @ | U937 Cell IC50, uM or % inhib @ conc. (uM): % inhib [2, 9]: 22.0% @

O=C(NC(Cc1ccccc1)c1[nH]nc(-c2ccc(F)cc2)c1-c1ccncc1)c1ccc(F)c(F)c1F (stereo not shown) [Example B-0813]
IC50 [1, 5]: 3020 nM | IC50 [2, 7]: > 1000 nM

O=C(NC(Cc1ccccc1)c1[nH]nc(-c2ccc(F)cc2)c1-c1ccncc1)c1ccccn1 (stereo not shown) [Example B-0855]
U937 Cell % inhib @ conc. (uM) [2, 9]: 8.0% @

CC(NC(=O)c1ccno1)c1[nH]nc(-c2ccc(F)cc2)c1-c1ccncc1 (stereo not shown) [Example B-0541]
IC50 [1, 5]: 3240 nM | inhibition at 1 µM ([2]; Homo sapiens, TNF production in human U937 cells stimulated with LPS): 28%

CC(C)=CC(=O)NCCCc1[nH]nc(-c2ccc(F)cc2)c1-c1ccncc1 [Example B-1175]
P38 alpha kinase % inhib @ conc. (uM) ([1]; @ 1.0 uM): 72.0% @ | IC50 [2, 10]: 1830 nM

Cc1ccc(-c2n[nH]c(C)c2-c2ccncc2)c(C)c1 [Example A-31]
IC50 [2, 11]: 1050 nM

O=S(=O)(c1cccc(Cl)c1)N1CCC(c2[nH]nc(-c3ccc(F)cc3)c2-c2ccncc2)CC1 [Example B-1465]
IC50 [1, 3]: 3230 nM | inhibition at 1 µM [2, 4]: 31%

O=C(c1ccc(Cl)cc1)N1CCC(c2[nH]nc(-c3ccc(F)cc3)c2-c2ccncc2)CC1 [Example B-1389]
IC50 [1, 3]: 60 nM | IC50 [2, 7]: 570 nM

CCOc1ccc(-c2n[nH]c(C)c2-c2ccncc2)cc1 [Example A-47]
IC50 ([1]; activated human p38 kinase alpha, PHAS-I substrate, 50 μM unlabeled ATP, read-out: p38 kinase IC50): 3200 nM | IC50 [2, 11]: 2360 nM

O=C(c1ccccn1)N1CCC(c2[nH]nc(-c3ccc(F)cc3)c2-c2ccncc2)CC1 [Example B-1386]
IC50 [1, 3]: < 100 nM | IC50 [2, 7]: 250 nM

Cc1cccc(C)c1NC(=O)Cn1nc(-c2ccc(F)cc2)c(-c2ccncc2)c1C [Example B-2417]
P38 alpha kinase IC50, uM or % inhib @ conc. (uM): % inhib [1]: 83.0% @ | U937 Cell IC50, uM or % inhib @ conc. (uM): % inhib [2, 9]: 18.0% @

O=C(NC(Cc1ccccc1)c1[nH]nc(-c2ccc(F)cc2)c1-c1ccncc1)c1ccccn1 (stereo not shown) [Example B-0823]
IC50 [1, 5]: 2390 nM | IC50 [2, 7]: > 1000 nM

COc1cccc(C(=O)NCCCc2[nH]nc(-c3ccc(F)cc3)c2-c2ccncc2)c1 [Example B-1185]
P38 alpha kinase % inhib @ conc. (uM) ([1]; @ 1.0 uM): 71.0% @ | IC50 [2, 10]: 790 nM

CNC(=O)CCC(NC(=O)Nc1c(C)cccc1C)c1[nH]nc(-c2ccc(F)cc2)c1-c1ccncc1 (stereo not shown) [Example B-0882]
IC50 [1, 5]: 1480 nM | inhibition at 1 µM [2, 6]: 9%

O=C(NCCc1[nH]nc(-c2ccc(F)cc2)c1-c1ccncc1)c1ccc(F)c(F)c1F [Example B-0997]
P38 alpha kinase % inhib @ conc. (uM) ([1]; @ 1.0 uM): 69.0% @ | U937 Cell % inhib @ conc. (uM) [2, 9]: 22.0% @

O=S(=O)(c1cccc(Cl)c1Cl)N1CCC(c2[nH]nc(-c3ccc(F)cc3)c2-c2ccncc2)CC1 [Example B-1448]
IC50 [1, 3]: 1430 nM | inhibition at 1 µM [2, 4]: 22%

CC1(C)C2CCC1(CS(=O)(=O)NCc1[nH]nc(-c3ccc(F)cc3)c1-c1ccncc1)C(=O)C2 (stereo not shown) [Example B-0227]
U937 Cell % inhib @ conc. [2, 9]: 1.0% @

C[C@@H](NS(=O)(=O)c1ccc2ccccc2c1)c1[nH]nc(-c2ccc(F)cc2)c1-c1ccncc1 [Example B-0475]
U937 Cell % inhib @ conc. (uM) [2, 8]: 74.0% @

O=C(NCCCc1[nH]nc(-c2ccc(F)cc2)c1-c1ccncc1)NCc1ccccn1 [Example B-1304]
inhibition at 1 µM [2, 4]: 10%

CC1(C)C2CCC1(CS(=O)(=O)NCc1[nH]nc(-c3ccc(F)cc3)c1-c1ccncc1)C(=O)C2 (stereo not shown) [Example B-0226]
inhibition at 1 µM [2, 6]: 20%

COc1ccc(CC(=O)N[C@H](C)c2[nH]nc(-c3ccc(F)cc3)c2-c2ccncc2)cc1OC [Example B-0371]
inhibition at 1 µM [2, 6]: 28%

Cc1ccc(S(=O)(=O)NC(Cc2ccccc2)C(=O)NCCCc2[nH]nc(-c3ccc(F)cc3)c2-c2ccncc2)cc1 (stereo not shown) [Example B-1188]
U937 Cell % inhib @ conc. (uM) [2, 9]: 36.0% @

C[C@@H](NC(=O)N[C@H](C)c1[nH]nc(-c2ccc(F)cc2)c1-c1ccncc1)c1ccccc1 [Example B-0417]
U937 Cell % inhib @ conc. (uM) [2, 8]: 28.0% @

Cc1cccc(C(=O)NCc2[nH]nc(-c3ccc(F)cc3)c2-c2ccncc2)c1 [Example B-0067]
U937 Cell % inhib @ conc. [2, 9]: 1.0% @

O=C(NC(Cc1ccccc1)c1[nH]nc(-c2ccc(F)cc2)c1-c1ccncc1)c1ccncc1 (stereo not shown) [Example B-0854]
U937 Cell % inhib @ conc. (uM) [2, 9]: 25.0% @

Cc1cccc(C(=O)NCc2[nH]nc(-c3ccc(F)cc3)c2-c2ccncc2)c1 [Example B-0290]
inhibition at 1 µM [2, 6]: 44%

O=C(NCc1[nH]nc(-c2ccc(F)cc2)c1-c1ccncc1)c1cccs1 [Example B-0303]
U937 Cell % inhib @ conc. [2, 9]: 10.0% @

O=C(NCc1[nH]nc(-c2ccc(F)cc2)c1-c1ccncc1)c1ccc(F)cc1C(F)(F)F [Example B-0062]
U937 Cell % inhib @ conc. [2, 9]: 36.0% @

Cc1[nH]nc(-c2ccc(N(C)C)cc2)c1-c1ccncc1 [Example A-37]
IC50 [2, 11]: 99 nM
